Toxic doses and inconclusive results are not listed. Cut-off read from the data, not from the text of the source: active = T/C of 150% or more; inactive = T/C below 125%.
System: L1210 leukemia ip in BDF1 mice, survival T/C
Assay: NCI In Vivo Anticancer Drug Screen. Data for tumor model L1210 Leukemia (intraperitoneal) in B6D2F1 (BDF1) mice
Conditions: endpoint: mean survival time, higher = longer survival
Summary of the method: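 Value reflects the ratio of survival in compound-treated mice to survival in vehicle-treated controls, with both groups carrying the same transplanted tumor.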

[1] = dose: 100.0 mg/kg/injection, schedule: Q04DX003 (ip), vehicle: saline with Tween-80
[2] = dose: 200.0 mg/kg/injection, schedule: Q04DX003 (ip), vehicle: saline with Tween-80
[3] = dose: 400.0 mg/kg/injection, schedule: Q04DX003 (ip), vehicle: saline with Tween-80
[4] = dose: 100.0 mg/kg/injection, schedule: Q01DX009 (ip), vehicle: saline with Tween-80
[5] = dose: 200.0 mg/kg/injection, schedule: Q01DX009 (ip), vehicle: saline with Tween-80
[6] = dose: 100.0 mg/kg/injection, schedule: Q04DX002 (ip), vehicle: saline with Tween-80
[7] = dose: 200.0 mg/kg/injection, schedule: Q04DX002 (ip), vehicle: saline with Tween-80
[8] = dose: 400.0 mg/kg/injection, schedule: Q04DX002 (ip), vehicle: saline with Tween-80
[9] = dose: 100.0 mg/kg/injection, schedule: Q04DX002 (ip), vehicle: Klucel (hydroxypropylcellulose) (HPC)
[10] = dose: 10.0 mg/kg/injection, schedule: Q01DX001 (ip), vehicle: saline
[11] = dose: 20.0 mg/kg/injection, schedule: Q01DX001 (ip), vehicle: saline
[12] = dose: 40.0 mg/kg/injection, schedule: Q01DX001 (ip), vehicle: saline
[13] = dose: 100.0 mg/kg/injection, schedule: Q04DX003 (ip), vehicle: Klucel (hydroxypropylcellulose) (HPC)
[14] = dose: 200.0 mg/kg/injection, schedule: Q04DX003 (ip), vehicle: Klucel (hydroxypropylcellulose) (HPC)
[15] = dose: 400.0 mg/kg/injection, schedule: Q04DX003 (ip), vehicle: Klucel (hydroxypropylcellulose) (HPC)
[16] = dose: 25.0 mg/kg/injection, schedule: Q04DX003 (ip), vehicle: Klucel (hydroxypropylcellulose) (HPC)
[17] = dose: 50.0 mg/kg/injection, schedule: Q01DX001 (ip), vehicle: carboxymethylcellulose (CMC)
[18] = dose: 50.0 mg/kg/injection, schedule: Q04DX003 (ip), vehicle: Klucel (hydroxypropylcellulose) (HPC)
[19] = dose: 50.0 mg/kg/injection, schedule: Q01DX001 (ip), vehicle: saline
[20] = dose: 100.0 mg/kg/injection, schedule: Q01DX001 (ip), vehicle: saline
[21] = dose: 200.0 mg/kg/injection, schedule: Q01DX001 (ip), vehicle: saline
[22] = dose: 400.0 mg/kg/injection, schedule: Q01DX001 (ip), vehicle: saline

Measured: T/C

O=C1OC(=O)C2CC3OC3CC12 (stereo unspecified)
inactive: dose: 50.0 mg/kg/injection, schedule: Q01DX001 (ip), vehicle: saline sonified 106 % of control | dose: 100.0 mg/kg/injection, schedule: Q01DX001 (ip), vehicle: saline sonified 96 % of control | [1] 91 % of control | dose: 200.0 mg/kg/injection, schedule: Q01DX001 (ip), vehicle: saline sonified 93 % of control | [2] 94 % of control | [3] 108 % of control

COc1ccc(C)cc1NC(=O)OCCOc1ccc(NC(C)=O)cc1
inactive: dose: 50.0 mg/kg/injection, schedule: Q01DX009 (ip), vehicle: saline with Tween-80 98 % of control | [4] 95 % of control | [5] 95 % of control

O=C(N/N=C/c1ccccc1O)C(O)C(O)C(O)C(O)CO (stereo unspecified)
inactive: [6] 92 % of control | [7] 106 % of control | [8] 95 % of control

NC(=O)CCC(NC(=O)OCc1ccccc1)C(=O)O (stereo unspecified)
inactive: dose: 100.0 mg/kg/injection, schedule: Q01DX009 (ip), vehicle: Klucel (hydroxypropylcellulose) (HPC) 91 % of control | [9] 97 % of control | dose: 200.0 mg/kg/injection, schedule: Q01DX009 (ip), vehicle: Klucel (hydroxypropylcellulose) (HPC) 112 % of control | dose: 200.0 mg/kg/injection, schedule: Q04DX002 (ip), vehicle: Klucel (hydroxypropylcellulose) (HPC) 97 % of control | dose: 400.0 mg/kg/injection, schedule: Q01DX009 (ip), vehicle: Klucel (hydroxypropylcellulose) (HPC) 109 % of control | dose: 400.0 mg/kg/injection, schedule: Q04DX002 (ip), vehicle: Klucel (hydroxypropylcellulose) (HPC) 105 % of control

Nc1ncnc2nc(-c3ccccc3)[nH]c12
inactive: dose: 25.0 mg/kg/injection, schedule: Q04DX002 (ip), vehicle: Klucel (hydroxypropylcellulose) (HPC) 102 % of control | dose: 50.0 mg/kg/injection, schedule: Q04DX002 (ip), vehicle: Klucel (hydroxypropylcellulose) (HPC) 94 % of control | [9] 91 % of control

COc1ccc(/C=C/C2=CC(=O)CC(c3ccc(OC)c(OC)c3)C2)cc1OC (stereo unspecified)
inactive: [6] 102 % of control | [7] 102 % of control | [8] 105 % of control

CC1(CCCOc2ccc(N)cc2)N=C(N)N=C(N)N1c1ccccc1 (stereo unspecified)
inactive: dose: 5.0 mg/kg/injection, schedule: Q01DX001 (ip), vehicle: saline 96 % of control | [10] 96 % of control | [11] 92 % of control | [12] 92 % of control | dose: 80.0 mg/kg/injection, schedule: Q01DX001 (ip), vehicle: saline 90 % of control

COB(C1CCCCC1)C1CCCCC1
inactive: [13] 91 % of control | [14] 98 % of control | [15] 100 % of control

O=c1cc(-c2ccccc2)sc(-c2ccccc2)c1
inactive: dose: 75.0 mg/kg/injection, schedule: Q04DX003 (ip), vehicle: saline 100 % of control | [13] 103 % of control | dose: 150.0 mg/kg/injection, schedule: Q04DX003 (ip), vehicle: saline 95 % of control | [14] 105 % of control | dose: 300.0 mg/kg/injection, schedule: Q04DX003 (ip), vehicle: saline 92 % of control | [15] 103 % of control

O=C1OC2CC3CC1C2C3 (stereo unspecified)
inactive: dose: 5.0 mg/kg/injection, schedule: Q01DX001 (ip), vehicle: other 91 % of control | dose: 10.0 mg/kg/injection, schedule: Q01DX001 (ip), vehicle: other 91 % of control | [10] 101 % of control | dose: 12.5 mg/kg/injection, schedule: Q01DX009 (ip), vehicle: Klucel (hydroxypropylcellulose) (HPC) 98 % of control | dose: 20.0 mg/kg/injection, schedule: Q01DX001 (ip), vehicle: other 95 % of control | [11] 105 % of control | dose: 25.0 mg/kg/injection, schedule: Q01DX009 (ip), vehicle: Klucel (hydroxypropylcellulose) (HPC) 96 % of control | [16] 95 % of control | dose: 40.0 mg/kg/injection, schedule: Q01DX001 (ip), vehicle: other 94 % of control | [12] 99 % of control | [17] 108 % of control | dose: 50.0 mg/kg/injection, schedule: Q01DX009 (ip), vehicle: Klucel (hydroxypropylcellulose) (HPC) 88 % of control | [18] 88 % of control | dose: 75.0 mg/kg/injection, schedule: Q01DX001 (ip), vehicle: acetone 97 % of control | dose: 100.0 mg/kg/injection, schedule: Q01DX001 (ip), vehicle: carboxymethylcellulose (CMC) 108 % of control

CCCN(CCC)CP(=O)(CN(CCC)CCC)CN(CCC)CCC
inactive: dose: 25.0 mg/kg/injection, schedule: Q04DX003 (ip), vehicle: saline with Tween-80 92 % of control | dose: 50.0 mg/kg/injection, schedule: Q04DX003 (ip), vehicle: saline with Tween-80 90 % of control | [1] 93 % of control

CCCCOc1ccc(NC(N)=Nc2ccc(Cl)cc2)cc1
inactive: dose: 2.5 mg/kg/injection, schedule: Q01DX009 (ip), vehicle: saline with Tween-80 102 % of control | dose: 5.0 mg/kg/injection, schedule: Q01DX009 (ip), vehicle: saline with Tween-80 94 % of control | dose: 10.0 mg/kg/injection, schedule: Q01DX009 (ip), vehicle: saline with Tween-80 96 % of control | dose: 10.0 mg/kg/injection, schedule: Q04DX003 (ip), vehicle: saline with Tween-80 101 % of control | dose: 12.5 mg/kg/injection, schedule: Q01DX001 (ip), vehicle: carboxymethylcellulose (CMC) 109 % of control | dose: 20.0 mg/kg/injection, schedule: Q01DX009 (ip), vehicle: saline with Tween-80 103 % of control | dose: 20.0 mg/kg/injection, schedule: Q04DX003 (ip), vehicle: saline with Tween-80 92 % of control | dose: 25.0 mg/kg/injection, schedule: Q01DX001 (ip), vehicle: carboxymethylcellulose (CMC) 100 % of control | dose: 40.0 mg/kg/injection, schedule: Q04DX003 (ip), vehicle: saline with Tween-80 97 % of control | [17] 100 % of control | dose: 80.0 mg/kg/injection, schedule: Q04DX003 (ip), vehicle: saline with Tween-80 98 % of control

COC(=O)C1(C)CCCC2(C)C1CCC13OCC(CC21)C1(C(C)C)OC31 (stereo unspecified)
inactive: [4] 96 % of control | [5] 93 % of control | dose: 400.0 mg/kg/injection, schedule: Q01DX009 (ip), vehicle: saline with Tween-80 95 % of control

O=C(C1=CC=CC1=P(c1ccccc1)(c1ccccc1)c1ccccc1)C(Cl)(Cl)Cl
inactive: [1] 96 % of control | [2] 95 % of control | [3] 96 % of control

Clc1ccnc2c1ccc1c(Cl)ccnc12
inactive: [17] 88 % of control

NC(=S)N/N=C/c1cccc(/C=N/NC(N)=S)c1
inactive: [19] 98 % of control | [20] 93 % of control | [21] 93 % of control | [22] 93 % of control

Cc1cc(OCCCC(=O)O)ccc1Cl
inactive: [19] 104 % of control | [20] 104 % of control | [21] 102 % of control | [22] 96 % of control

COCCNC1=C(F)C(=O)C(NCCOC)=C(F)C1=O
inactive: dose: 3.12 mg/kg/injection, schedule: Q04DX003 (ip), vehicle: Klucel (hydroxypropylcellulose) (HPC) 90 % of control | dose: 6.25 mg/kg/injection, schedule: Q04DX003 (ip), vehicle: Klucel (hydroxypropylcellulose) (HPC) 111 % of control | dose: 12.5 mg/kg/injection, schedule: Q04DX003 (ip), vehicle: Klucel (hydroxypropylcellulose) (HPC) 98 % of control | [16] 95 % of control | [18] 95 % of control | [13] 97 % of control | dose: 150.0 mg/kg/injection, schedule: Q04DX003 (ip), vehicle: Klucel (hydroxypropylcellulose) (HPC) 94 % of control | dose: 225.0 mg/kg/injection, schedule: Q04DX003 (ip), vehicle: Klucel (hydroxypropylcellulose) (HPC) 94 % of control | dose: 335.0 mg/kg/injection, schedule: Q04DX003 (ip), vehicle: Klucel (hydroxypropylcellulose) (HPC) 95 % of control

Source: PubChem BioAssay AID248 (DTP/NCI, 2004)
